Results on one compound are retold here after patent publication US20130005573A1, “COMPOSITIONS AND METHODS OF USE FOR KETONES AND ALDEHYDES AS HERBICIDES” (North Carolina State University, priority 2010, published 2013).

In one assay the test system is wild henbit. In words: Herbicidal spray treatment on henbit under winter field conditions. It counts as in vivo, henbit (Lamium amplexicaule). The protocol: FIG. 1 is an image showing results of tests used to determine the herbicidal activity of a spray treatment comprising the use of a 5% solution of 2-undecanone in ethanol. The image was captured approximately 2 hours after the spray-applications of materials to henbit under winter field conditions. Both of the weed groups shown in FIG. 1 are groups of wild henbit. Treatment of the group of henbit plants on the left side of FIG. 1 (control group) consisted of spraying the group with 100 ml of the carrier as a fine mist; the carrier comprised absolute ethanol (without the herbicide). Treatment of the group of henbit plants on the right side of FIG. 1 (treatment group) consisted of spraying the group with 100 ml of the herbicide/carrier mixture (5 wt % of 2-undecanone/100 mL solution) as a fine mist. The image was captured 2 hours after treatment.
Because the sprayer produced a very fine mist in each case, and there may have been spray drift (from the wind) during these treatments, evaporation and dissipation of these misty sprays occurred to some degree before and while each spray hit its targeted group of plant material.
Experiment 2 is similar to Experiment 1, in that it tests the herbicidal activity of an experimental spray treatment on henbit. The herbicidal spray treatments of Experiment 2 comprised the use of a 20% solution of 2-undecanone in ethanol (20 wt % of 2-undecanone/100 mL solution). The experimental results are featured in FIGS. 2A, 2B and 2C, the henbit treatment group receiving the 2-undecanone spray treatment is located on the right side of the image shown in FIG. 2A. The control group was treated with a spray comprising just the carrier (absolute ethanol); the henbit treatment group receiving this carrier-only spray treatment (control group) is located on the left side of the image shown in FIG. 2A. The image was captured 4 days after the spray-applications of these materials to the groups of henbit under winter field conditions. […]

Another assay relates to bean plants. The assay is described as follows: Herbicidal spray treatment on bean plants. Type of assay: in vivo. Particulars: 20% solution (wt/vol) in absolute ethanol, sprayed to run off. The method, then: Experiment 3 exemplifies the herbicidal activity of 2-undecanone on bean plants. The bean plant on the left in FIG. 3 was treated with a 20% solution (wt/vol) of 2-undecanone in a carrier comprising absolute ethanol. The bean plant on the right was treated with the absolute ethanol carrier only. Treatments were made by spraying each plant until “run off” levels were achieved. […] In contrast, the plant on the right (ethanol control) never differed in appearance from the no-spray controls (not shown). […] All treatments of the bean plants described above were performed in North Carolina during the summer months under a shelter; the bean plants were protected from the elements but were watered regularly. The plants also received direct sunlight for about 8 hours from approximately noon until sunset.

For another assay, the system named is Tomato seedlings. In words: Greenhouse fine mist foliar spray on tomato seedlings. It counts as in vivo. The method, then: (§1) This experiment was conducted in a greenhouse setting. Tomato seedlings in 4 to 6 true-leaf stage and 3-5 inch tall potato plants were treated with a fine mist spray comprising a solution of >2% 2-undecanone in 95% ethanol.
Another assay concerns potato plants. In words: Greenhouse fine mist foliar spray on potato plants. It counts as in vivo. Particulars: >2% in 95% ethanol. The protocol: as §1
The test system of a further assay is wild-type grass. In words: Spray treatment of test plots of wild-type grass. It counts as in vivo, grass (monocotyledon). The protocol:
Two experiments were initiated that tested the activity of an acyclic ketone on a common monocotyledon. The test plots comprised similar areas of wild-type grass. The area of each test plot of grass was defined to be the area within a square measuring approximately 15 inches on a side. The experiments were conducted using two different formulations of the same test material: the formulation tested in Experiment 6 comprised a 5% (wt/vol) mixture of undecanone in absolute ethanol; the formulation tested in Experiment 7 comprised a 5% (wt/vol) mixture of undecanone in water.
A measured amount of each formulation was sprayed onto its appropriate test area using a hand held spray bottle; the spray bottle produced a fine mist in each case. […] The details of each experiment are provided separately below.
In Experiment 6, 40 ml of a 5% formulation of the test material in ethanol (wt/vol) was evenly sprayed on one of two adjacent test plots of grass. This treated plot was located on the right side of the test plot pair. The adjacent test plot (left; control plot) was sprayed in an identical fashion with a spray bottle containing 40 mL of the ethanol carrier as a control; the time difference for completing the spraying of the two grassy test plots was less than 2 minutes. The effects of the spray formulations on the test plots were noted over time and images were captured at several time points for later comparisons (see FIGS. 5A, 5B and 5C for images). FIGS. 5A, 5B and 5C are images showing the effects of spraying a 5% formulation of the test material in ethanol and ethanol control on test plots of grass in accordance with embodiments of the present disclosure.
Visible differences were observed within a 30 minute period following the spray applications of control and test compound formulations comprising ethanol. […] The appearance of the plots at the one-hour time point are shown in the FIG. 5B image, and the appearance of the plots at the twenty four-hour time point are shown in the FIG. 5C image.
The conditions and amounts of materials used in Experiment 7 were similar to those employed in Experiment 6, with the exception that both the formulation comprising the active ingredient and the solution of carrier comprised water in the place of ethanol. In Experiment 7, the early toxicity effects were delayed compared to the early toxicity effects noted in Experiment 6. […] The appearance of the areas treated with the formulation comprising water were photographed at the 24 hour time point and can be seen in the image of FIG. 6B.

Turning to `CCCCCCCCCC(C)=O` [2-undecanone], in the assay on wild henbit (5% solution in ethanol, 100 ml fine mist, below run-off, approximately 2 hours after treatment), the “changes in color and vitality of treated henbit plants” value is “had lost much of their green color and vitality, and had turned yellow”. In addition, the “overall state of treated henbit group versus control” value in the assay on wild henbit (20% (wt/vol) in absolute ethanol, 100 ml spray, 4 days after treatment) is “appeared to be dead or dying”. Also, in the assay on wild henbit (20% (wt/vol) in absolute ethanol, 100 ml spray, below run-off, 4 days after treatment), the “effect on stems of treated henbit plants” value is “had become significantly weakened and had become flaccid”. Further, in the assay with bean plants (2 weeks after treatment), the “leaf color of treated bean plant” value is on record as “yellow”. In addition, the “onset of change in appearance of treated bean plant” value in the assay on bean plants (day of treatment) is “started to change its appearance and character shortly after the spray treatment was complete”. Also, the “subsequent outcome after foliage death” value in the assay on Tomato seedlings (>2% in 95% ethanol, fine mist to foliage) was “plant death”; in the assay with potato plants (fine mist to foliage) it was “plant death”. Further, the “time to death of the plants' foliage” value in the assay with Tomato seedlings (>2% in 95% ethanol, fine mist to foliage, seedlings in 4 to 6 true-leaf stage) was ≤ 24 h; in the assay on potato plants (3-5 inch tall plants), ≤ 24 h. Besides, in the assay on Tomato seedlings (less than 1% in 95% ethanol, similar application), the “effect on tomato plants at low concentration” value is recorded as “death of foliage followed by re-foliation some days later”. Also, in the assay on wild-type grass (Experiment 6: 5% (wt/vol) in ethanol, up to 24 hours), the “course of herbicidal toxicity over time” value is “increase with time”. Besides, in the assay on wild-type grass (Experiment 6: 40 ml of 5% (wt/vol) in ethanol), the “time to visible differences versus control plot” value is ≤ 30 min. Further, in the assay with wild-type grass (Experiment 6: 40 ml of 5% (wt/vol) in ethanol, after 30 minutes), the “appearance of treated grass” value is given as “appeared brown”. For the same compound, the “time to first toxicity effects after spraying” value in the assay on wild-type grass (Experiment 7: 5% (wt/vol) in water) was 2 to 3 h. Further, the “visual appearance of water-carrier plots compared with ethanol-carrier plots” value in the assay on wild-type grass (Experiment 7: 5% (wt/vol) in water, at 24 hours) is “similar”.
